Like-named read-outs stand apart in the source and are kept apart here.
Target: CFTR (Homo sapiens, UniProt P13569)
Test: Membrane potential dye, Enteroid Assay A
Type: cell-based
Settings: for Ent. A Max Activity: chloride transport as % of triple combination control (Enteroid Assay A); for EC50: human enteroid cells, 18-24 hours, acute 10 μM forskolin and 300 nM ivacaftor, read-out: Ent. A EC50
Protocol: Base medium (ADF+++) consisted of Advanced DMEM/Ham's F12, 2 mM Glutamax, 10 mM HEPES, […] penicillin/streptomycin.
Intestinal enteroid maintenance medium (IEMM) consisted of ADF+++, 1× B27 supplement, 1× N2 supplement, 1.25 mM N-acetyl cysteine, 10 mM Nicotinamide, 50 ng/mL hEGF, 10 nM Gastrin, 1 μg/mL hR-spondin-1, 100 ng/mL hNoggin, TGF-b type 1 inhibitor A-83-01, 100 μg/mL Primocin, 10 μM P38 MAPK inhibitor SB202190.
Bath 1 Buffer consisted of 1 mM MgCl2, 160 mM NaCl, 4.5 mM KCl, 10 mM HEPES, 10 mM Glucose, 2 mM CaCl2).
Chloride Free Buffer consisted of 1 mM Magnesium Gluconate, 2 mM Calcium Gluconate, 4.5 mM Potassium Gluconate, 160 mM Sodium Gluconate, 10 mM HEPES, 10 mM Glucose.
BathI Dye Solution consisted of Bath 1 Buffer, 0.04% Pluronic F127, 20 μM Methyl Oxonol, 30 μM CaCCinh-A01, 30 μM Chicago Sky Blue.
Chloride Free Dye Solution consisted of Chloride Free Buffer, 0.04% Pluronic F127, 20 μM Methyl Oxonol, 30 μM CaCCinh-A01, 30 μM Chicago Sky Blue.
Chloride Free Dye Stimulation Solution consisted of Chloride Free Dye Solution, 10 μM forskolin, 100 μM IBMX, and 300 nM Compound III.
Human intestinal epithelial enteroid cells were obtained from the Hubrecht Institute for Developmental Biology and Stem Cell Research, Utrecht, The Netherlands and expanded in T-Flasks as previously described (Dekkers J F, Wiegerinck C L, de Jonge H R, Bronsveld I, Janssens H M, de Winter-de Groot K M, Brandsma A M, de Jong N W M, Bijvelds M J C, Scholte B J, Nieuwenhuis E E S, van den Brink S, Clevers H, van der Ent C K, Middendorp S and M Beekman J M. A functional CFTR assay using primary cystic fibrosis intestinal organoids. Nat Med. 2013 July;19(7):939-45.).
3. Enteroid Cell Harvesting and Seeding
Cells were recovered in cell recovery solution, collected by centrifugation at 650 rpm for 5 min at 4° C., resuspended in TrypLE and incubated for 5 min at 37° C. Cells were then collected by centrifugation at 650 rpm for 5 min at 4° C. and resuspended in IEMM containing 10 μM ROCK inhibitor (RI). The cell suspension was passed through a 40 μm cell strainer and resuspended at 1×10^6 cells/mL in IEMM containing 10 μM RI. Cells were seeded at 5000 cells/well into multi-well plates and incubated for overnight at 37° C., 95% humidity and 5% CO2 prior to assay.
4. Membrane Potential Dye, Enteroid Assay A
Enteroid cells were incubated with test compound in IEMM for 18-24 hours at 37° C., 95% humidity and 5% CO2. […] Briefly, cells were washed 5 times in Bath 1 Buffer. Bath 1 Dye Solution was added, and the cells were incubated for 25 min at room temperature. Following dye incubation, cells were washed 3 times in Chloride Free Dye Solution. Chloride transport was initiated by addition of Chloride Free Dye Stimulation Solution and the fluorescence signal was read for 15 min. […] Chloride transport was then expressed as a percentage of the chloride transport following treatment with 3 μM N-[(6-amino-2-pyridyl)sulfonyl]-6-(3-fluoro-5-isobutoxy-phenyl)-2-[(4S)-2,2,4-trimethylpyrrolidin-1-yl]pyridine-3-carboxamide, 3 μM (R)-1-(2,2-difluorobenzo[d][1,3]dioxol-5-yl)-N-(1-(2,3-dihydroxypropyl)-6-fluoro-2-(1-hydroxy-2-methylpropan-2-yl)-1H-indol-5-yl)cyclopropanecarboxamide and 300 nM acute N-[2,4-bis(1,1-dimethylethyl)-5-hydroxyphenyl]-1,4-dihydro-4-oxoquinoline-3-carboxamide triple combination control (% Activity).

CFTR, sequence (P13569 with tags, fused parts or gaps DEL508-508): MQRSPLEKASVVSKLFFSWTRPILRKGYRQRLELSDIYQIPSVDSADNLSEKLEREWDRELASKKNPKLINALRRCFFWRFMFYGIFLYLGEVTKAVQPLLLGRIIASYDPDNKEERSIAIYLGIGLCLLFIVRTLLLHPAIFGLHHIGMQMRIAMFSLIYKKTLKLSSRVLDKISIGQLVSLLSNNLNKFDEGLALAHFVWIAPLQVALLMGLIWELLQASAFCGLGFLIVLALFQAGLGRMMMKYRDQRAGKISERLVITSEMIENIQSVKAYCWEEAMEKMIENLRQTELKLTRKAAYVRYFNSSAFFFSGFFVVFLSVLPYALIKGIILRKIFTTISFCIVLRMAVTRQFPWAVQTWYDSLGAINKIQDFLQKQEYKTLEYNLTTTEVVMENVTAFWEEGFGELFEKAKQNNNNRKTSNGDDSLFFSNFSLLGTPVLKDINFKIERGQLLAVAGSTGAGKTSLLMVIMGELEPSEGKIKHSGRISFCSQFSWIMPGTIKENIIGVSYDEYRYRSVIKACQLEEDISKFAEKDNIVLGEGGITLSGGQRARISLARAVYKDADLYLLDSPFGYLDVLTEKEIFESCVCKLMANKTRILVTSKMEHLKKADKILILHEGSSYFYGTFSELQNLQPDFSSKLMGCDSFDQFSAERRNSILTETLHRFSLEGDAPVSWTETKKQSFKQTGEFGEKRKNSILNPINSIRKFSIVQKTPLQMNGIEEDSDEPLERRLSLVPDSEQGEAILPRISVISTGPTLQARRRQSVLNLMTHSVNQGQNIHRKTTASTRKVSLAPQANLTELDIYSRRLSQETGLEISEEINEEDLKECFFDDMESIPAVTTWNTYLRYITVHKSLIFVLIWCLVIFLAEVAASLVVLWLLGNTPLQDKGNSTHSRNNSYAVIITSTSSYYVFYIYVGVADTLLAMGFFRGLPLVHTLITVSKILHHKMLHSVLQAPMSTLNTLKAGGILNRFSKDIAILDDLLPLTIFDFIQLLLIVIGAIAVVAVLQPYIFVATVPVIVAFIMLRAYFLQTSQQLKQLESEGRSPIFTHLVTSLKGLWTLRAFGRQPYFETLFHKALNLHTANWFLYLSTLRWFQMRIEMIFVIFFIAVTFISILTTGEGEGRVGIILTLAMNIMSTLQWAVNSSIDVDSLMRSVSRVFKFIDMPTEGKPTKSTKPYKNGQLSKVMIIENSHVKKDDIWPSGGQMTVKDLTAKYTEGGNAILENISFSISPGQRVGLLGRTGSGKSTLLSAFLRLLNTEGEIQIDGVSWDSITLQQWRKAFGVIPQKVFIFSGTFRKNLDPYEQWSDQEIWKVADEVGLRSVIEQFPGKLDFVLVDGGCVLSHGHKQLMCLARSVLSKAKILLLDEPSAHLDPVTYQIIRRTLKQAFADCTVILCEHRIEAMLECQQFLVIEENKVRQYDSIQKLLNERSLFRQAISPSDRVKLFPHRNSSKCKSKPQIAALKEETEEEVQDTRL

Structure (SMILES)	Ent. A Max Activity (Table 7)	EC50 (Table 7)	Ent. A Max Activity (Table 6)	EC50 (Table 6)
Cc1cccc(C)c1-c1cc2nc(n1)NS(=O)(=O)c1cccc(c1)C(=O)N(C)C[C@@H](c1ccc(C(C)(C)C)cc1)O2 (single isomer, unassigned) [Compound 12, 10-(4-tert-butylphenyl)-6-(2,6-dimethylphenyl)-12-methyl-2,2-dioxo-9-oxa-2λ^6-thia-3,5,12,19-tetrazatricyclo[12.3.1.14,8]nonadeca-1(18),4(19),5,7,14,16-hexaen-13-one]	++ (++ is 30-60%)	< 1000 nM	–	–
Cc1cccc(C)c1-c1cc2nc(n1)NS(=O)(=O)c1cccc(c1)C(=O)N(CCC1CCOCC1)[C@H](CCC1(C(F)(F)F)CC1)CO2 (single isomer, unassigned) [Compound 73, 6-(2,6-dimethylphenyl)-2,2-dioxo-12-(2-tetrahydropyran-4-ylethyl)-11-[2-[1-(trifluoromethyl)cyclopropyl]ethyl]-9-oxa-2λ^6-thia-3,5,12,19-tetrazatricyclo[12.3.1.14,8]nonadeca-1(18),4(19),5,7,14,16-hexaen-13-one]	–	–	+ (+ is <30%)	–
Cc1cccc(C)c1-c1cc2nc(n1)NS(=O)(=O)c1cccc(c1)C(=O)N(CC(O)CO)[C@H](CC(C)C)CO2 (stereo in doubt) [Compound 39, (11R)-12-[(2S)-2,3-Dihydroxypropyl]-6-(2,6-dimethylphenyl)-11-(2-methylpropyl)-9-oxa-2λ^6-thia-3,5,12,19-tetraazatricyclo[12.3.1.14,8]nonadeca-1(17),4(19),5,7,14(18),15-hexaene-2,2,13-trione]	–	–	+++ (+++ is >60%)	< 1000 nM
Cc1cccc(C)c1-c1cc2nc(n1)NS(=O)(=O)c1cccc(c1)C(=O)N(C)CC(c1ccc(-c3ccncc3)cc1)O2 (stereo not drawn) [Compound 9, 6-(2,6-Dimethylphenyl)-12-methyl-2,2-dioxo-10-[4-(4-pyridyl)phenyl]-9-oxa-2λ^6-thia-3,5,12,19-tetrazatricyclo[12.3.1.14,8]nonadeca-1(18),4(19),5,7,14,16-hexaen-13-one]	–	–	++ (++ is 30-60%)	< 1000 nM
Cc1cccc(C)c1-c1cc2nc(n1)NS(=O)(=O)c1cccc(c1)C(=O)N(C)C(c1ccc(C(C)(C)C)cc1)CO2 (stereo not drawn) [Compound 13, 11-(4-tert-butylphenyl)-6-(2,6-dimethylphenyl)-12-methyl-2,2-dioxo-9-oxa-2λ^6-thia-3,5,12,19-tetrazatricyclo[12.3.1.14,8]nonadeca-1(18),4(19),5,7,14,16-hexaen-13-one]	++ (++ is 30-60%)	< 1000 nM	–	–

Now from value to molecule:

Ent. A Max Activity (Table 7)	EC50 (Table 7)	Ent. A Max Activity (Table 6)	EC50 (Table 6)	Structure (SMILES)
+ (+ is <30%)	3000 to 30000 nM	–	–	Cc1cccc(C)c1-c1cc2nc(n1)NS(=O)(=O)c1cccc(c1)C(=O)N(C)C[C@H](c1cccc(C(C)(C)C)c1)O2 (single isomer, unassigned) [Compound 15, 10-(3-tert-butylphenyl)-6-(2,6-dimethylphenyl)-12-methyl-2,2-dioxo-9-oxa-2λ^6-thia-3,5,12,19-tetrazatricyclo[12.3.1.14,8]nonadeca-1(18),4(19),5,7,14,16-hexaen-13-one]
+++ (+++ is >60%)	< 1000 nM	–	–	Cc1cccc(C)c1-c1cc2nc(n1)NS(=O)(=O)c1cccc(c1)C(=O)N(C)C[C@@H](c1cccc(C(C)(C)C)c1)O2 (single isomer, unassigned) [Compound 17, 10-(3-tert-butylphenyl)-6-(2,6-dimethylphenyl)-12-methyl-2,2-dioxo-9-oxa-2λ^6-thia-3,5,12,19-tetrazatricyclo[12.3.1.14,8]nonadeca-1(18),4(19),5,7,14,16-hexaen-13-one]
–	–	+++ (+++ is >60%)	1000 to 3000 nM	Cc1cccc(C)c1-c1cc2nc(n1)NS(=O)(=O)c1cccc(c1)C(=O)N(Cc1ccccn1)CCCO2 [Compound 5, 6-(2,6-Dimethylphenyl)-2,2-dioxo-13-(2-pyridylmethyl)-9-oxa-2λ^6-thia-3,5,13,20-tetrazatricyclo[13.3.1.14,8]icosa-1(19),4(20),5,7,15,17-hexaen-14-one]
